Data reported in article PMC4667271, “Discovery of a Novel Inhibitor of the Protein Tyrosine Phosphatase Shp2” (Scientific Reports, 2015).
Changes are numbered by the printed parent chain.

Assays:
[1] = test system: ERK1/2 phosphorylation in HEK293T cells; experiment: EGF-induced ERK1/2 activation, Western blot, HEK293T; assay type: cell-based, human; conditions: 10-40 μM for 24 h, EGF 20 ng/ml 5 min
Text: (§1) After centrifugation, the supernatant was collected.

SHP1 = SHP1 (Homo sapiens, UniProt P29350); experiment: in vitro PTP assay (pNPP), SHP1; assay type: biochemical
Experimental: (§2) Plasmids for expression of His-tag fusion proteins of human PTP were constructed in PET-28a by PCR subcloning techniques. The constructions contain only the PTP domain except Full-length Shp2. Full-length Shp2 containing Tyr279-to-Ala mutant was generated by PCR-based mutagenesis. All constructs were verified by DNA sequencing. PTP-His fusion proteins were expressed in Escherichia coli BL21 and lysed in the buffer (50 mM NaH2PO4, 300 mM NaCl, 250 mM imidazole, 1 mM dithiothreitol plus 5% glycerol), purified with Ni-NTA Magnetic Agarose Beads (Qiagen). The His-tag recombinant purification protocol was carried out according to the purification under native conditions of the QIAexpress System.
(§3) The assay was set in wells of 96-well plate with a final volume of 100 μl of reaction mixture containing 10 mM of NaAc-HAc, 1 mM of ethylene diamine tetraacetic acid, 1 mM of DL-dithiothreitol and 2% of dimethyl sulfoxide, pH 5.5. Activity of the enzyme was assayed by incubating recombinant PTP protein or mutant PTP with various concentrations of Fumos in the mixture at 37 °C for 30 min. Absorbance at 405 nm was detected immediately after addition of varied concentrations of substrate, p-nitrophenyl phosphate (pNPP) to each corresponding well.

Shp2-WT = biological target: T1, Shp2-WT (Homo sapiens, UniProt Q06124); experiment: Surface plasmon resonance analysis, Shp2-WT; assay type: binding; conditions: SPR, Fumos immobilized, Shp2-WT injected
T1 sequence (Q06124 1-593): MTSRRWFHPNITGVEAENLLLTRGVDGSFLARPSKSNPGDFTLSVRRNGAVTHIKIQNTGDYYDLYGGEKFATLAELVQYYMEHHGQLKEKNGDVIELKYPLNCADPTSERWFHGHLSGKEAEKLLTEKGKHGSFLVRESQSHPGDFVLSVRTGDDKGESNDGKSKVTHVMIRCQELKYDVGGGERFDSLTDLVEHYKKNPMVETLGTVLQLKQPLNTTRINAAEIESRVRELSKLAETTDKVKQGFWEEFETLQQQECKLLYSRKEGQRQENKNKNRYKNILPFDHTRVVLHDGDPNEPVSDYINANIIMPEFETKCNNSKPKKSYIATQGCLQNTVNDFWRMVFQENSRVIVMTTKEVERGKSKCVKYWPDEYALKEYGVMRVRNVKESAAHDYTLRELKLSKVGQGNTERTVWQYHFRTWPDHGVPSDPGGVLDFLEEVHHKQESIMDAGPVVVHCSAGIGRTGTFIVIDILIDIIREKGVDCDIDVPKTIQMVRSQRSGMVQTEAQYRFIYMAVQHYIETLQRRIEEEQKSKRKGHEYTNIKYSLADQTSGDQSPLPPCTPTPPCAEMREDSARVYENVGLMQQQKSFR
Experimental: (§4) One small molecule (10 mM) was spotted on the 3D sensor chip. Positive and negative controls on the chip were monitored for binding kinetics to verify immobilization. All experiments were performed using Plexera’s Plex Array SPRi instrumentation, visualized using Instrument Control software (ICS) and analyzed using Plexera Data Explorer software.
(§5) Proteins were injected in the following order: Shp2 full-length protein (12 nM, 36 nM, 108 nM, 324 nM), Shp2 Y279A protein (35 nM, 70 nM,140 nM, 280 nM, 560 nM). Each protein was injected at a flow rate of 1 μl/sec. The association duration was 200 sec and dissociation duration was 300 sec. Regeneration between injections was performed with 600 μl of 10 mM glycine-HCl, pH = 2.0. The data were analyzed by Plexera Data Explorer software.

[2] = test system: Src and Paxillin phosphorylation in HeLa cells; experiment: Src, PLCγ1 and Paxillin phosphorylation, Western blot, HeLa; assay type: cell-based, human; conditions: 10-40 μM 24 h, EGF
Text: Figure 6 Fumos affects the phosphorylation of Src and Paxillin. […] DMSO treatment as control. Western blotting analysis for the expression of p-Src(Tyr416) p-Src (Tyr530), Src, p-PLCγ1, PLCγ1, p-Paxillin(Tyr118), p-Paxillin (Tyr31) and Paxillin. (b,c) Densitometric analysis of pSrc530/Src in the Western blots of Hela and MDA-MB-231, respectively. Bars represent mean ± S.E.M. values from three experiments, **p = 0.006 < 0.01/F = 8 vs EGF, one-way ANOVA followed by Tukey’s test.
as §1

TCPTP = TCPTP (Homo sapiens, UniProt P17706); experiment: in vitro PTP assay (pNPP), TCPTP; assay type: biochemical
Experimental: as §2, §3

Shp2-Y279A = biological target: T2, Shp2-Y279A (Homo sapiens, UniProt Q06124, Y279A); experiment: Surface plasmon resonance analysis, Shp2-Y279A; assay type: binding
T2 sequence (Q06124 1-593 Y279A): T1 sequence (Q06124 1-593) with Y279A
Experimental: as §4, §5

[3] = SPR, Fumos immobilized, Shp2-Y279A injected

SHP1, sequence (P29350 244-515 limits assumed): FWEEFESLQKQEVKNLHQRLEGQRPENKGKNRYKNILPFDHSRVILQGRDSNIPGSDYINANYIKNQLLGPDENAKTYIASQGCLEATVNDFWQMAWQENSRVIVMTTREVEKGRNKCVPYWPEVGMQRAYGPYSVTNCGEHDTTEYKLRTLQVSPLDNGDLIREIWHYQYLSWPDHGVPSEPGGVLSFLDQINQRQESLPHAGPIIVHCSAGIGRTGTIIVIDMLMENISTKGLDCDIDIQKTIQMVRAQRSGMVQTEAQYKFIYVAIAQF
TCPTP, sequence (P17706 5-275 limits assumed): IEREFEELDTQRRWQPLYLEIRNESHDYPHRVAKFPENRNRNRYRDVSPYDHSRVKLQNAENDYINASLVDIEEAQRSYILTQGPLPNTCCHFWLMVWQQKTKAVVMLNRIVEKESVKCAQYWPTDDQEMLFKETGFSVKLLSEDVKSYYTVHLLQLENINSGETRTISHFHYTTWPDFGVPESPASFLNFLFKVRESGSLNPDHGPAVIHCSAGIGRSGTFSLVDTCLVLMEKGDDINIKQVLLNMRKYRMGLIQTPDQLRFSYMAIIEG

Structure (SMILES): CC[C@@H](C)C[C@@H](C)/C=C(C)/C=C/C=C/C=C(\C)C(=O)c1c(O)c(-c2ccc(O)cc2)cn(O)c1=O [Fumos, Fumosorinone]
- EGF-induced ERK1/2 phosphorylation [1]: drastically decreased
- IC50 (SHP1; SHP1 PTP domain): 34.7 ± 0.37 µM
- IC50 selective (SHP1; SHP1 relative to Shp2 PTP domain): ~6
- Ka (association rate) (Shp2-WT): 7.06 × 10^5 M^−1 S^−1
- Kd (Shp2-WT): 0.04 µM
- Kd (dissociation rate) (Shp2-WT): 2.85 × 10^−2 S^−1
- Src Tyr416 phosphorylation [2]: dose-dependent downregulation
- phosphorylated Tyr 530 of Src [2]: moderately increased
- phosphorylation of PLCγ1 [2]: decreased
- phosphorylation of Paxillin at Tyr31 [2]: peaked at low concentrations of Fumos and reduced at high concentrations
- phosphorylation of Paxillin at Tyr118 [2]: decreased with the increasing concentrations
- IC50 (TCPTP; TCPTP PTP domain): 29.7 ± 0.42 µM
- IC50 selective (TCPTP; TCPTP relative to Shp2 PTP domain): ~5
- affinity of Shp2-Y279A relative to Shp2-WT (Shp2-Y279A; SPR KD comparison): nine-fold less affinity
- Ka (association rate) (Shp2-Y279A; [3]): 5.06 × 10^4 M^−1 S^−1
- Kd (Shp2-Y279A; [3]): 0.368 µM
- Kd (dissociation rate) (Shp2-Y279A; [3]): 1.86 × 10^−2 S^−1
